The record followed here is ChEMBL document CHEMBL1201862, “PubChem BioAssay data set” (2004).

Test systems include A498; CAKI-1; DU-145; EKVX; HCC 2998; Hs-578T; KM12; LOX IMVI; MCF7; MDA-MB-231; MDA-N; NCI-H226; NCI-H460; NCI/ADR-RES; OVCAR-4; PC-3; RXF 393; SF-268; SNB-19; SNB-75.
Experiment in all cases: NCI tumour cell line growth inhibition, 48 h

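Five concentrations, 48 hours, 96-well plates. GI50 is the concentration that inhibits growth by half.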 Activity calls are given as the source filed them. Cut-off read from the data, not from the text of the source: active = GI50 up to about 1.1 µM and inactive = higher.

For the compound `Nc1nc(Cl)cc(NCC2(CO)CC(CCCc3ccccc3)C2)n1` (stereo not given), the GI50 with A498 was > 63.1 µM (inactive); in the assay with CAKI-1, > 100 µM (inactive); in the assay on DU-145, > 100 µM (inactive); in the assay with EKVX it was > 25.3 µM (inactive); in the assay on HCC 2998, > 100 µM (inactive); in the assay with Hs-578T, > 64.4 µM (inactive). Further, the GI50 is > 100 µM (inactive) in the assay with KM12; 0.282 µM (active) with LOX IMVI; 0.0492 µM (active) with MCF7; > 100 µM (inactive) in the assay with MDA-MB-231; > 100 µM (inactive) in the assay on MDA-N; > 100 µM (inactive) in the assay with NCI-H226. Further, the GI50 is > 69.5 µM (inactive) with NCI-H460; 4.86 µM (inactive) in the assay on NCI/ADR-RES; > 100 µM (inactive) with OVCAR-4; > 81.3 µM (inactive) in the assay on PC-3; > 47.1 µM (inactive) in the assay with RXF 393; > 100 µM (inactive) in the assay on SF-268. For the same compound, the results for the GI50 in the assay with SNB-19 and with SNB-75 were > 71.1 µM (inactive) and > 46 µM (inactive), respectively.

As to `Cn1c2ccccc2c(=O)c2c(O)cc3c(c21)CC(C1(C)CO1)O3` (stereo not given), the GI50 was 11.2 µM (inactive) in the assay on A498; 2.99 µM (inactive) with CAKI-1; 10.7 µM (inactive) in the assay on DU-145; 3.08 µM (inactive) in the assay with EKVX; 1.79 µM (inactive) with HCC 2998; 2 µM (inactive) in the assay with Hs-578T. The GI50 in the assay with KM12 is 2.41 µM (inactive); in the assay with LOX IMVI it was < 0.0111 µM (active); in the assay on MCF7, 0.462 µM (active); in the assay on MDA-MB-231, 2.03 µM (inactive); with MDA-N it was 1.38 µM (inactive); with NCI-H226, 13.3 µM (inactive). Further, the GI50 in the assay on NCI-H460 was 3.29 µM (inactive); in the assay with NCI/ADR-RES it was 1.32 µM (inactive); in the assay on OVCAR-4 it was 8.83 µM (inactive); in the assay on PC-3, 3.37 µM (inactive); in the assay with RXF 393, 1.17 µM (inactive); in the assay with SF-268, 0.942 µM (active). In addition, the GI50 in the assay with SNB-19 is 10.4 µM (inactive); with SNB-75 it was 7.28 µM (inactive).

Regarding `O=C(OCCN1CCCCC1)C(c1ccccc1)C1(O)CCSCC1` (stereo not given), the GI50 in the assay with A498, with CAKI-1, in the assay with DU-145, with EKVX, in the assay on HCC 2998 and in the assay with Hs-578T was > 100 µM (inactive) throughout. For the same compound, the GI50 in the assay on KM12, in the assay with LOX IMVI, in the assay on MCF7, in the assay with MDA-MB-231, in the assay with MDA-N and in the assay with NCI-H226 was > 100 µM (inactive) each time. The GI50 in the assay on NCI-H460, in the assay on NCI/ADR-RES, with OVCAR-4, in the assay with PC-3, in the assay with RXF 393 and with SF-268 was > 100 µM (inactive) throughout. Besides, the values for the GI50 in the assay on SNB-19 and in the assay with SNB-75 were > 100 µM (inactive) and 83.4 µM (inactive), respectively.

In the case of `N#CC(C#N)=C/C=C/c1ccccc1[N+](=O)[O-]`, the GI50 was > 10 µM (inactive) in the assay with A498; 5.04 µM (inactive) with CAKI-1; > 10 µM (inactive) with DU-145; > 10 µM (inactive) in the assay with EKVX; > 10 µM (inactive) in the assay with HCC 2998; 3.48 µM (inactive) in the assay with Hs-578T. For the same compound, the GI50 is 5.02 µM (inactive) in the assay on KM12; 2.52 µM (inactive) with LOX IMVI; 3.95 µM (inactive) in the assay on MCF7; 2.59 µM (inactive) with MDA-MB-231; 2.44 µM (inactive) with MDA-N; > 10 µM (inactive) with NCI-H226. In addition, the GI50 in the assay with NCI-H460 was 9.57 µM (inactive); in the assay on NCI/ADR-RES it was 2.16 µM (inactive); in the assay with OVCAR-4, 6 µM (inactive); in the assay with PC-3, 5.06 µM (inactive); with RXF 393, 2.31 µM (inactive); with SF-268 it was > 10 µM (inactive). For the same compound, the GI50 in the assay on SNB-19 and with SNB-75 was > 10 µM (inactive) throughout.

`CC(=O)Oc1ccc2oc(=O)cc(C)c2c1`: the GI50 with A498, in the assay with CAKI-1, with DU-145, in the assay on EKVX, in the assay on HCC 2998 and in the assay on Hs-578T was > 100 µM (inactive) throughout. In addition, the GI50 in the assay with KM12, in the assay with LOX IMVI, with MCF7, in the assay with MDA-MB-231, with MDA-N and in the assay on NCI-H226 was > 100 µM (inactive) in each case. Also, the GI50 in the assay with NCI-H460 was > 100 µM (inactive); with NCI/ADR-RES, > 100 µM (inactive); with OVCAR-4 it was > 100 µM (inactive); in the assay on PC-3, > 10 µM (inactive); in the assay with RXF 393, > 100 µM (inactive); in the assay with SF-268, > 100 µM (inactive). Also, the GI50 in the assay on SNB-19 and in the assay with SNB-75 was > 100 µM (inactive) throughout.

Regarding `c1ccc2c(c1)Sc1nccc3ccnc-2c13`, the GI50 with A498 was 16.6 µM (inactive); with CAKI-1, 7.13 µM (inactive); in the assay on DU-145 it was > 100 µM (inactive); with EKVX, 10.6 µM (inactive); with HCC 2998, 33.3 µM (inactive); in the assay with Hs-578T, 14 µM (inactive). Moreover, the GI50 in the assay with KM12 is 61 µM (inactive); with LOX IMVI, 28.9 µM (inactive); with MCF7 it was 12.6 µM (inactive); in the assay with MDA-MB-231, > 100 µM (inactive); in the assay on MDA-N, 57.3 µM (inactive); with NCI-H226 it was 27.9 µM (inactive). Moreover, the GI50 with NCI-H460 is 5.57 µM (inactive); in the assay with NCI/ADR-RES it was 25.2 µM (inactive); in the assay on OVCAR-4, 59.2 µM (inactive); in the assay with PC-3, 39.2 µM (inactive); with RXF 393 it was 63.8 µM (inactive); in the assay on SF-268, 18.7 µM (inactive). Moreover, the GI50 in the assay with SNB-19 was 20.7 µM (inactive); in the assay with SNB-75, 15.2 µM (inactive).

As for `CC[C@@]1(O)C(=O)OCc2c1c(Cl)c1n(c2=O)Cc2cc3ccccc3nc2-1`, the GI50 with A498 was 2.18 µM (inactive); in the assay on CAKI-1 it was 0.736 µM (active); in the assay on DU-145, 1.92 µM (inactive); with EKVX, 6.1 µM (inactive); in the assay with HCC 2998, 3.4 µM (inactive); with Hs-578T it was 31.4 µM (inactive). In addition, the GI50 is 6.38 µM (inactive) in the assay on KM12; 1.16 µM (inactive) in the assay on LOX IMVI; 0.708 µM (active) with MCF7; 61 µM (inactive) with MDA-MB-231; 7.24 µM (inactive) in the assay with MDA-N; 2.14 µM (inactive) in the assay with NCI-H226. Besides, the GI50 in the assay on NCI-H460 is 0.383 µM (active); in the assay on NCI/ADR-RES it was 1.8 µM (inactive); with OVCAR-4, 8.97 µM (inactive); in the assay on PC-3, 4.93 µM (inactive); in the assay on RXF 393, 2.52 µM (inactive); with SF-268, 1.31 µM (inactive). The figures for the GI50 in the assay with SNB-19 and in the assay with SNB-75 were 2.36 µM (inactive) and 1.84 µM (inactive), respectively.
